Assay results published in patent publication US10400006B2, “Estrogen receptor modulators” (THE REGENTS OF THE UNIVERSITY OF CALIFORNIA, priority 2014, dated 2019).
Entries after “also recorded” stand apart in the source; their conditions may differ.

Tests used:
[1] = target: T1, estrogen receptor-alpha (Homo sapiens, UniProt P03372); experiment: Western immunoblot of ERα protein levels in MCF-7 cells after 48 hrs; assay type: cell-based; conditions: 1 μM or 10 μM, in presence of 1 nM estradiol-17β
T1 construct: MCF-7 breast cancer cells with high expression of ERα protein were treated with estradiol-17β; endogenous in cells; host or cells: MCF-7 human breast cancer cells
T1 sequence (P03372 1-595): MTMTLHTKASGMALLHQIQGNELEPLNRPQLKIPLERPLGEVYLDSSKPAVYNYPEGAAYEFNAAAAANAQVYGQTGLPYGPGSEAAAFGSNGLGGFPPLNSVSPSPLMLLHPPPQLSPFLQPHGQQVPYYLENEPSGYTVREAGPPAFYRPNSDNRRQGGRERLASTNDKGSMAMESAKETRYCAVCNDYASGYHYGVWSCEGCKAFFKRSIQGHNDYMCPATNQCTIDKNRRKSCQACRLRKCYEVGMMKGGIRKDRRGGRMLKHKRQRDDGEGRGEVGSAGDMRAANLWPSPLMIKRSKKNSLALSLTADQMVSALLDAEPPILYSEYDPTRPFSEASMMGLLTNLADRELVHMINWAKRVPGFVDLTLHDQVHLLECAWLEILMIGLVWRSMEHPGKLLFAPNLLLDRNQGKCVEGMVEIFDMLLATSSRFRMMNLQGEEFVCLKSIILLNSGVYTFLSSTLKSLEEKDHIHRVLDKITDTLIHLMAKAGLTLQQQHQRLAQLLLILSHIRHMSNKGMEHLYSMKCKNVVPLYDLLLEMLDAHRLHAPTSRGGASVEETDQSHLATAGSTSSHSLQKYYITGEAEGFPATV

[2] = system: human MCF-7 breast cancer cells; experiment: MCF-7 cell proliferation, BrdU ELISA, in presence of 1 nM estradiol-17β; assay type: cell-based; conditions: for inhibition of MCF-7 cell proliferation/survival: 1 μM or 50 μM, in presence of 1 nM estradiol-17β, 72 hr; for effectiveness compared with fulvestrant in MCF-7 proliferation: same doses in vitro (1 μM or 50 μM)
Procedure: In experiments to assess potential proliferative effects of novel estrogen receptor ligands, human breast cancer cells were grown in phenol red-free, estrogen-free media with 1% dextran-coated charcoal-treated (DCC)-fetal bovine serum (FBS) for 48 hrs (15,44), then treated with either 1 μM or 50 μM doses of estrogen receptor antagonists in the presence of 1 nM estradiol-17β. Cell counts and viability tests (Trypan blue) were done every 24 hr for 3 days. After 72 hr, proliferation was assessed using the BrdU Cell proliferation ELISA (Roche). Cell numbers were also assessed initially by cell counts to confirm ELISA data. Each antiestrogen was tested at least in three different experiments.
In order to assess the antitumor action of novel estrogen receptor antagonists, we cultured human MCF-7 breast cancer cells with known expression of ERα. […] Cell proliferation is expressed as percentage of that determined in the 1 nM estradiol-17β-treated control group.

[3] = system: MCF-7/HER-2 cells; conditions: xenografts in nude mice; cited from earlier work
[4] = clinic; cited from earlier work
[5] = system: MCF-7 parental cells; conditions: xenografts in nude mice; cited from earlier work
[6] = system: MAPK, ERK-1 (p44) and ERK-2 (p42); experiment: Estrogen-induced phosphorylation of MAPK in MCF-7 parental cells, Western blot; assay type: cell-based, human; conditions: for E2-induced rapid phosphorylation of ERK-1 and ERK-2 after pre-incubation: 1000 nM, in presence of estradiol (E2)
Procedure: ERD inhibition of phosphorylation of MAPK, at both extracellular signal-regulated kinases ERK-1 (p44) and ERK-2 (p42) and downstream effects. […] Thus, we measured estrogen-induced phosphorylation of MAPK by established methods (9,15,16). Briefly, MCF-7 parental cells were estrogen deprived for 48 hrs, then treated with 1 nM estradiol-17β in the presence of new compounds (10 nM-10 μM) to be tested for antagonist activity. After treatments, cell lysates were separated by SDS-PAGE followed by Western blot using a polyclonal antibody directed to phospho-p44/p42 MAP kinase (Thr202/Tyr204) (Cell Signaling). Immunodetection with antibody against total p44/p42 (Cell Signaling) was done as a control for gel loading. […] E2 but not vehicle (CN) induced rapid phosphorylation of ERK-1 (p44) and ERK-2 (p42). This activation was prevented when cells were pre-incubated with 1000 nM ICI 182,780 (ICI; Faslodex) or 1000 nM compound S15 in the presence of estradiol (E2).

[7] = target: T2, estrogen receptor (Homo sapiens, UniProt P03372); experiment: Specific [3H]estradiol-17β binding in MCF-7 parental cells; conditions: 10 μM compound, 2 nM [3H]estradiol-17β
T2 construct: endogenous in cells; host or cells: MCF-7 parental breast cancer cells
T2 sequence (P03372 1-595): T1 sequence (P03372 1-595)
Procedure: Specific estradiol binding: Specific estradiol-17β (E2) binding was assessed in MCF-7 parental breast cancer cells as before (14-16). Briefly, cells were incubated with 2 nM [^3H]estradiol-17β and varying concentrations (1 nM-10 μM) of new estrogen receptor downregulator (ERD) analogues. The efficiency of the binding of compounds was measured by the loss of radioactivity of the [^3H]estradiol-17β. A 100-fold molar excess of unlabeled E2 was present with [3H]estradiol-17β in paired samples for determination of displaceable binding. […] Compounds S1-S14 are test compounds different from the exemplified compounds described herein.

[8] = target: T3, ER protein (Homo sapiens, UniProt P03372); experiment: ER down-regulation, Western immunoblot of ER (66 kD) in MCF-7 cells; assay type: cell-based; conditions: 24 hours, 10, 100 and 1000 nM
T3 construct: endogenous in cells; host or cells: MCF-7 breast tumor cells
T3 sequence (P03372 1-595): T1 sequence (P03372 1-595)
Description: ER down-regulation: To determine if selected compounds can down-regulate ER protein, we treated cells for 24-48 hrs in vitro with candidate compounds at varying doses. Then, cells were disrupted and prepared for PAGE and Western immunoblots using anti-ERα antibodies (see FIG. 6). […] Those ERDs with optimal activity in down-regulating ER were investigated further in the chemistry laboratory to further refine and develop such agents.

[9] = system: human non-small cell lung cancer cells A549; experiment: A549 non-small cell lung cancer cell proliferation, MTS assay; assay type: cell-based; conditions: 1 μM or 10 μM, 72 hours, compared with fulvestrant
Procedure: Cell counts and viability tests (Trypan blue) were done every 24 hours for 3 days. After 72 hours, proliferation was assessed using the CellTiter 96™ AQueous One Solution Cell Proliferation Assay (MTS) from Promega. Cell numbers were also assessed initially by cell counts to confirm ELISA data. Each antiestrogen was tested in at least in three independent experiments.

[10] = system: ER+ early breast cancer; conditions: cited from earlier work

Structure (SMILES)	ERα protein expression in MCF-7 cells [1]	inhibition of MCF-7 cell proliferation/survival [2]	effectiveness compared with fulvestrant in MCF-7 proliferation [2]	sensitivity of MCF-7/HER-2 tumors [3]	growth of parent MCF-7 tumors [5]	E2-induced rapid phosphorylation of ERK-1 and ERK-2 after pre-incubation [6]	also measured
C[C@]12C[C@H](Oc3ccc(N)c(C(F)(F)F)c3)[C@@H]3c4ccc(O)cc4CC[C@H]3[C@@H]1CC[C@@H]2O [JD128, (8S,9S,11S,13S,14S,17S)-11-(4-Amino-3-(trifluoromethyl)phenoxy)-13-methyl-7,8,9,11,12,13,14,15,16,17-decahydro-6H-cyclopenta[a]phenanthrene-3,17-diol]	greatest effect at suppressing estrogen receptor-alpha expression	significant inhibition	more effective than the ER-downregulator fulvestrant	–	–	–	–
C[C@]12CC[C@@H]3c4ccc(O)cc4C[C@@H](CCCCCCCCC[S+]([O-])CCCC(F)(F)C(F)(F)F)[C@H]3[C@@H]1CC[C@@H]2O (stereo partly drawn) [fulvestrant]	–	–	–	partially sensitive	suppressed	prevented	bioavailability [4]: very low bioavailability; also recorded: low bioavailability
C[C@]12C[C@H](Oc3ccc(N)cc3)[C@@H]3c4ccc(O)cc4CC[C@H]3[C@@H]1CC[C@@H]2O [JD105, (8S,9S,11S,13S,14S,17S)-11l-(4-aminophenoxy)-13-methyl-7,8,9,11,12,13,14,15,16,17-decahydro-6H-cyclopenta[a]phenanthrene-3,17-diol]	–	–	–	–	–	prevented	suppression of specific binding of [3H]estradiol-17β [7]: suppressed; suppression of specific binding of [3H]estradiol-17β ([7]; listed as S15): suppressed effectively; ER protein levels in MCF-7 cells [8]: reduces ER protein levels; inhibition of estrogen-induced phosphorylation of MAPK (ERK-1 p44 and ERK-2 p42) ([6]; 1 nM estradiol-17β): inhibits phosphorylation of MAPK; effectiveness compared with fulvestrant in inhibiting estrogen-induced MAPK phosphorylation ([6]; breast tumor cells in vitro): as effective as fulvestrant
C[C@]12C[C@H](Oc3ccc(NC(=O)CCCCN4CCCCC4)c(F)c3)[C@@H]3c4ccc(O)cc4CC[C@H]3[C@@H]1CC[C@@H]2O [JD140, N-(4-(((8S,9S,11S,13S,14S,17S)-3,17-Dihydroxy-13-methyl-7,8,9,11,12,13,14,15,16,17-deca-hydro-6H-cyclopenta[a]phenanthren-11-yl)oxy)-2-fluorophenyl)-5-(piperidin-1-yl)pentan-amide]	down-regulated	significant inhibition	more effective than the ER-downregulator fulvestrant	–	–	–	antiproliferative effects in A549 cells [9]: significant antiproliferative effects
CC/C(=C(\c1ccccc1)c1ccc(OCCN(C)C)cc1)c1ccccc1 [tamoxifen]	–	–	–	insensitive	suppressed	–	reduction in disease recurrence [10]: 39%; reduction in mortality [10]: 31%
